Reference: patent US4178442A, “Novel cinnamoyles piperazines and homopiperazines, the method of preparing them and their application in therapeutics” (Delalande S. A., priority 1977, dated 1979)
Where a name gives a salt, the structure may show the parent alone. Read-outs that look alike come from different tables or passages of the source.

Legend:
anaesthetized dog = experiment: Antiangorous activity on anaesthetized dog: consumption of oxygen in the left ventricule and cardiac effort (KATZ's index); type: in vivo; settings: for inhibition in vivo at […]: 0.15 mg/kg i.v. slow perfusion
Method in brief: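 Katz index taken as mean arterial pressure multiplied by ECG (D2) heart rate, and myocardial O2 use as coronary sinus flow via modified Morawitz cannula times coronary arteriovenous O2 difference. Animals: pentobarbital-anaesthetized dogs (30 mg/kg i.v.), test compounds infused slowly intravenously.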

in vivo = settings: for mortality: read-out: Toxicity (Mortality); for LD50: read-out: Toxicity: LD50
Source text: *LD50 or percentage of mortality which is given between brackets

[1] = Canis lupus familiaris, iv, 2.5 mg/kg i.v. slow perfusion, read-out: Diminution in consumption of O2
[2] = Canis lupus familiaris, iv, 2.5 mg/kg i.v. slow perfusion, read-out: Diminution in the cardiac effort (IK)
[3] = Canis lupus familiaris, iv, read-out: Diminution in consumption of O2
[4] = Canis lupus familiaris, iv, read-out: Diminution in the cardiac effort (IK)
[5] = 0.625 mg/kg i.v. slow perfusion

With `COc1cc(/C=C/C(=O)N2CCN(CC(O)COc3ccccc3NC(C)=O)CC2)cc(OC)c1OC` (stereo not drawn) [770 738] the “Diminution in consumption of O2: in time” value (anaesthetized dog; 2.5 mg/kg i.v. slow perfusion) was 45 min, the “Diminution in the cardiac effort (IK): in time” value (shortened to “Diminution in the cardiac effort”) (anaesthetized dog; 2.5 mg/kg i.v. slow perfusion) was 45 min and the inhibition in vivo at 2.5 mg/kg (anaesthetized dog; [1]) was 63%. The inhibition in vivo at 2.5 mg/kg (anaesthetized dog; [2]) was 48% and the mortality (in vivo; iv, 400 mg/kg i.v.) was 40%.

In the case of `COc1cc(/C=C/C(=O)N2CCN(CC(O)COc3ccc(C(C)=O)c4c3OCCO4)CC2)cc(OC)c1O` (stereo not drawn) [770 274, 1-[3-(4-acetyl-2,3-ethylenedioxy)phenoxy-2-hydroxy]propyl-4-(3,5-dimethoxy-4-hydroxycinnamoyl)piperazine oxalate], the “Diminution in consumption of O2: in time” value (anaesthetized dog; 2.5 mg/kg i.v. slow perfusion) is reported as 30 min, the “Diminution in the cardiac effort” value (anaesthetized dog; 2.5 mg/kg i.v. slow perfusion) is reported as 15 min and the inhibition in vivo at 2.5 mg/kg (anaesthetized dog; [1]) is reported as 41%. For the same molecule, the inhibition in vivo at 2.5 mg/kg (anaesthetized dog; [2]) was 10% and the mortality (in vivo; iv, 336 mg/kg i.v.) was 30%.

With `COc1cc(/C=C/C(=O)N2CCN(CC(O)COc3ccc(C(C)(C)C)cc3)CC2)cc(OC)c1OC` (stereo not drawn) [770 859] the “Diminution in consumption of O2: in time” value (anaesthetized dog; 2.5 mg/kg i.v. slow perfusion) was 30 min, the “Diminution in the cardiac effort” value (anaesthetized dog; 2.5 mg/kg i.v. slow perfusion) was 60 min and the inhibition in vivo at 2.5 mg/kg (anaesthetized dog; [1]) was 30%. It also gave an inhibition in vivo at 2.5 mg/kg (anaesthetized dog; [2]) of 52% and an LD50 (in vivo; iv) of 150 mg/kg.

For `COc1cc(/C=C/C(=O)N2CCN(CC(O)COc3ccc(CO)c4c3OCCO4)CC2)cc(OC)c1OC` (stereo not drawn) [760 705], the “Diminution in consumption of O2: in time” value (anaesthetized dog; 1.25 mg/kg i.v. slow perfusion) was 38 min, the “Diminution in the cardiac effort” value (anaesthetized dog; 1.25 mg/kg i.v. slow perfusion) was 75 min and the inhibition in vivo at 1.25 mg/kg (anaesthetized dog; Canis lupus familiaris, iv, 1.25 mg/kg i.v. slow perfusion, read-out: Diminution in consumption of O2) was 51%. For the same molecule, the inhibition in vivo at 1.25 mg/kg (anaesthetized dog; Canis lupus familiaris, iv, 1.25 mg/kg i.v. slow perfusion, read-out: Diminution in the cardiac effort (IK)) was 26% and the mortality (in vivo; iv, 400 mg/kg i.v.) was 20%.

In the case of `COc1cc(/C=C/C(=O)N2CCN(CC(O)COc3ccccc3Cl)CC2)cc(OC)c1OC` (stereo not drawn) [760 520], the “Diminution in consumption of O2: in time” value (anaesthetized dog; 2.3 mg/kg i.v. slow perfusion) is reported as 40 min, the “Diminution in the cardiac effort” value (anaesthetized dog; 2.3 mg/kg i.v. slow perfusion) is reported as 30 min and the inhibition in vivo at 2.3 mg/kg (anaesthetized dog; Canis lupus familiaris, iv, 2.3 mg/kg i.v. slow perfusion, read-out: Diminution in consumption of O2) is reported as 45%. It also gave an inhibition in vivo at 2.3 mg/kg (anaesthetized dog; Canis lupus familiaris, iv, 2.3 mg/kg i.v. slow perfusion, read-out: Diminution in the cardiac effort (IK)) of 13% and an LD50 (in vivo; iv) of 157 mg/kg.

For `CCc1ccc(OCC(O)CN2CCN(C(=O)/C=C/c3cc(OC)c(OC)c(OC)c3)CC2)c2c1OCCO2` (stereo not drawn) [770 142], the “Diminution in consumption of O2: in time” value (anaesthetized dog; 1.1 mg/kg i.v. slow perfusion) was 30 min, the inhibition in vivo at 1.1 mg/kg (anaesthetized dog; Canis lupus familiaris, iv, 1.1 mg/kg i.v. slow perfusion, read-out: Diminution in consumption of O2) was 29% and the LD50 (in vivo; iv) was 116 mg/kg.

For `COc1cc(/C=C/C(=O)N2CCN(CC(O)COc3ccc(C(C)=O)cc3)CC2)cc(OC)c1OC` (stereo not drawn) [760 385], the “Diminution in consumption of O2: in time” value (anaesthetized dog; 2.2 mg/kg i.v. slow perfusion) was 15 min, the “Diminution in the cardiac effort” value (anaesthetized dog; 2.2 mg/kg i.v. slow perfusion) was 15 min and the inhibition in vivo at 2.2 mg/kg (anaesthetized dog; Canis lupus familiaris, iv, 2.2 mg/kg i.v. slow perfusion, read-out: Diminution in consumption of O2) was 65%. For the same molecule, the inhibition in vivo at 2.2 mg/kg (anaesthetized dog; Canis lupus familiaris, iv, 2.2 mg/kg i.v. slow perfusion, read-out: Diminution in the cardiac effort (IK)) was 16% and the mortality (in vivo; iv, 351 mg/kg i.v.) was 10%.

In the case of `CCOc1c(OC)cc(/C=C/C(=O)N2CCN(CC(O)COc3ccc(C(C)=O)c4c3OCCO4)CC2)cc1OC` (stereo not drawn) [770 504], the “Diminution in consumption of O2: in time” value (anaesthetized dog; 2.5 mg/kg i.v. slow perfusion) is reported as 15 min, the inhibition in vivo at 2.5 mg/kg (anaesthetized dog; [1]) is reported as 52% and the inhibition in vivo at 2.5 mg/kg (anaesthetized dog; [2]) is reported as 10%. It also gave an LD50 (in vivo; iv) of 145 mg/kg.

In the case of `COc1cc(/C=C/C(=O)N2CCN(CC(O)COc3ccc(C(C)=O)c4c3OCCO4)CC2)cc(OC)c1OC` (stereo not drawn) [760 394], the “Diminution in consumption of O2: in time” value (anaesthetized dog; 2.1 mg/kg i.v. slow perfusion) is reported as 60 min, the “Diminution in the cardiac effort” value (anaesthetized dog; 2.1 mg/kg i.v. slow perfusion) is reported as 45 min and the inhibition in vivo at 2.1 mg/kg (anaesthetized dog; Canis lupus familiaris, iv, 2.1 mg/kg i.v. slow perfusion, read-out: Diminution in consumption of O2) is reported as 60%. For the same molecule, the inhibition in vivo at 2.1 mg/kg (anaesthetized dog; Canis lupus familiaris, iv, 2.1 mg/kg i.v. slow perfusion, read-out: Diminution in the cardiac effort (IK)) was 46% and the LD50 (in vivo; iv) was 214 mg/kg.

`COc1cc(/C=C/C(=O)N2CCN(CC(O)COc3ccc(NC(=O)Nc4ccccc4)c4c3OCCO4)CC2)cc(OC)c1OC` (stereo not drawn) [770 085] showed an inhibition in vivo at […] (anaesthetized dog; [3]) of 44%, an inhibition in vivo at […] (anaesthetized dog; [4]) of 14% and a mortality (in vivo; po, p.o.: 1855 mg/kg) of 0%.

In the case of `CCC(=O)Nc1ccc(OCC(O)CN2CCN(C(=O)/C=C/c3cc(OC)c(OC)c(OC)c3)CC2)c2c1OCCO2` (stereo not drawn) [770 545], the “Diminution in consumption of O2: in time” value (anaesthetized dog; [5]) is reported as 30 min, the “Diminution in the cardiac effort” value (anaesthetized dog; [5]) is reported as 15 min and the inhibition in vivo at 0.625 mg/kg (anaesthetized dog; Canis lupus familiaris, iv, 0.625 mg/kg i.v. slow perfusion, read-out: Diminution in consumption of O2) is reported as 61%. It also gave an inhibition in vivo at 0.625 mg/kg (anaesthetized dog; Canis lupus familiaris, iv, 0.625 mg/kg i.v. slow perfusion, read-out: Diminution in the cardiac effort (IK)) of 16% and a mortality (in vivo; iv, 400 mg/kg i.v.) of 40%.

Molecule `COc1cc(/C=C/C(=O)N2CCN(CC(O)COc3ccc(NC(=O)N(C)C)c4c3OCCO4)CC2)cc(OC)c1OC` (stereo not drawn) [771 233] has an inhibition in vivo at […] (anaesthetized dog; [3]) of 29%, an inhibition in vivo at […] (anaesthetized dog; [4]) of 9% and an LD50 (in vivo; iv) of 310 mg/kg.

For `COc1cc(/C=C/C(=O)N2CCN(CC(O)COc3ccc(C(N)=O)cc3)CC2)cc(OC)c1OC` (stereo not drawn) [770 058], the “Diminution in consumption of O2: in time” value (anaesthetized dog; 2.5 mg/kg i.v. slow perfusion) was 30 min, the “Diminution in the cardiac effort” value (anaesthetized dog; 2.5 mg/kg i.v. slow perfusion) was 30 min and the inhibition in vivo at 2.5 mg/kg (anaesthetized dog; [1]) was 36%. The inhibition in vivo at 2.5 mg/kg (anaesthetized dog; [2]) was 35% and the LD50 (in vivo; iv) was 315 mg/kg.

For `COc1cc(/C=C/C(=O)N2CCN(CC(O)COc3ccc(C(C)=O)c4c3OCO4)CC2)cc(OC)c1OC` (stereo not drawn) [780 308], the “Diminution in consumption of O2: in time” value (anaesthetized dog; 2.5 mg/kg i.v. slow perfusion) was 45 min, the “Diminution in the cardiac effort” value (anaesthetized dog; 2.5 mg/kg i.v. slow perfusion) was 45 min and the inhibition in vivo at 2.5 mg/kg (anaesthetized dog; [1]) was 49%. The inhibition in vivo at 2.5 mg/kg (anaesthetized dog; [2]) was 37% and the mortality (in vivo; iv, 400 mg/kg i.v.) was 10%.
